Test results: PubChem BioAssay (NCI)
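In this assay, cells in 96-well plates receive the compound at five concentrations for 48 hours. Endpoints are linearly interpolated between the surrounding concentrations. Abbreviation: GI50, concentration required for 50% inhibition of growth. TGI marks complete inhibition of growth.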

How the values were obtained:
Test in all cases: NCI tumour cell line growth inhibition, 48 h
OVCAR-8 ovarian = tested on: OVCAR-8 ovarian
T-47D breast = tested on: T-47D breast
DU-145 prostate = tested on: DU-145 prostate
HCT-15 colon = tested on: HCT-15 colon
BT-549 breast = tested on: BT-549 breast
OVCAR-4 ovarian = tested on: OVCAR-4 ovarian
SK-MEL-5 melanoma = tested on: SK-MEL-5 melanoma
CCRF-CEM leukemia = tested on: CCRF-CEM leukemia
SW-620 colon = tested on: SW-620 colon
TK-10 renal = tested on: TK-10 renal
LOX IMVI melanoma = tested on: LOX IMVI melanoma
SN12C renal = tested on: SN12C renal
HT29 colon = tested on: HT29 colon
MDA-MB-435 = tested on: MDA-MB-435
COLO 205 colon = tested on: COLO 205 colon
U251 CNS = tested on: U251 CNS
SNB-19 CNS = tested on: SNB-19 CNS
SK-MEL-2 melanoma = tested on: SK-MEL-2 melanoma
NCI-H226 lung = tested on: NCI-H226 lung
SF-539 CNS = tested on: SF-539 CNS
UACC-62 melanoma = tested on: UACC-62 melanoma
HCT-116 colon = tested on: HCT-116 colon
HOP-92 NSCLC = tested on: HOP-92 NSCLC
EKVX NSCLC = tested on: EKVX NSCLC
RXF 393 renal = tested on: RXF 393 renal
SF-268 CNS = tested on: SF-268 CNS
RPMI-8226 leukemia = tested on: RPMI-8226 leukemia
SK-OV-3 ovarian = tested on: SK-OV-3 ovarian
SNB-75 CNS = tested on: SNB-75 CNS
HL-60(TB) leukemia = tested on: HL-60(TB) leukemia
SR leukemia = tested on: SR leukemia
IGROV1 ovarian = tested on: IGROV1 ovarian
MDA-MB-231 breast = tested on: MDA-MB-231 breast
NCI/ADR-RES ovarian = tested on: NCI/ADR-RES ovarian
HCC-2998 colon = tested on: HCC-2998 colon
K-562 leukemia = tested on: K-562 leukemia
SK-MEL-28 melanoma = tested on: SK-MEL-28 melanoma
OVCAR-3 ovarian = tested on: OVCAR-3 ovarian
UACC-257 melanoma = tested on: UACC-257 melanoma
CAKI-1 renal = tested on: CAKI-1 renal
KM12 colon = tested on: KM12 colon
SF-295 CNS = tested on: SF-295 CNS
A498 renal = tested on: A498 renal
OVCAR-5 ovarian = tested on: OVCAR-5 ovarian
786-0 renal = tested on: 786-0 renal
A549 NSCLC = tested on: A549 NSCLC
NCI-H522 lung = tested on: NCI-H522 lung
HS 578T breast = tested on: HS 578T breast
UO-31 renal = tested on: UO-31 renal
NCI-H460 lung = tested on: NCI-H460 lung
MOLT-4 leukemia = tested on: MOLT-4 leukemia
ACHN renal = tested on: ACHN renal
MCF7 breast = tested on: MCF7 breast
MALME-3M melanoma = tested on: MALME-3M melanoma
PC-3 prostate = tested on: PC-3 prostate
HOP-62 NSCLC = tested on: HOP-62 NSCLC
M14 melanoma = tested on: M14 melanoma

CS(=O)c1nccc(-c2c(-c3ccc(F)c(OCc4ccc(F)cc4)c3)nc3sccn23)n1 (centres undefined)
GI50 (OVCAR-8 ovarian): 53.2 µM | TGI (OVCAR-8 ovarian): > 100 µM | GI50 (T-47D breast): 2640 nM | TGI (T-47D breast): 7 µM | GI50 (DU-145 prostate): 3.72 µM | TGI (DU-145 prostate): 13.2 µM | GI50 (HCT-15 colon): 16.3 µM | TGI (HCT-15 colon): > 100 µM | GI50 (BT-549 breast): > 100 µM | TGI (BT-549 breast): > 100 µM | GI50 (OVCAR-4 ovarian): 22.4 µM | TGI (OVCAR-4 ovarian): 74.1 µM | GI50 (SK-MEL-5 melanoma): 44 µM | TGI (SK-MEL-5 melanoma): > 100 µM | GI50 (CCRF-CEM leukemia): 15.8 µM | TGI (CCRF-CEM leukemia): > 100 µM | GI50 (SW-620 colon): 27 µM | TGI (SW-620 colon): > 100 µM | GI50 (TK-10 renal): > 100 µM | TGI (TK-10 renal): > 100 µM | GI50 (LOX IMVI melanoma): 74.6 µM | TGI (LOX IMVI melanoma): > 100 µM | GI50 (SN12C renal): > 100 µM | TGI (SN12C renal): > 100 µM | GI50 (HT29 colon): 22.3 µM | TGI (HT29 colon): > 100 µM | GI50 (MDA-MB-435): 47.8 µM | TGI (MDA-MB-435): > 100 µM | GI50 (COLO 205 colon): > 100 µM | TGI (COLO 205 colon): > 100 µM | GI50 (U251 CNS): > 100 µM | TGI (U251 CNS): > 100 µM | GI50 (SNB-19 CNS): 14.9 µM | TGI (SNB-19 CNS): 38.6 µM | GI50 (SK-MEL-2 melanoma): 71.8 µM | TGI (SK-MEL-2 melanoma): > 100 µM | GI50 (NCI-H226 lung): > 100 µM | TGI (NCI-H226 lung): > 100 µM | GI50 (SF-539 CNS): > 100 µM | TGI (SF-539 CNS): > 100 µM | GI50 (UACC-62 melanoma): 32.1 µM | TGI (UACC-62 melanoma): > 100 µM | GI50 (HCT-116 colon): 5.08 µM | TGI (HCT-116 colon): 20.8 µM | GI50 (HOP-92 NSCLC): 5.76 µM | TGI (HOP-92 NSCLC): 43.9 µM | GI50 (EKVX NSCLC): 16.3 µM | TGI (EKVX NSCLC): 41.3 µM | GI50 (RXF 393 renal): 16.5 µM | TGI (RXF 393 renal): 63.8 µM | GI50 (SF-268 CNS): 19.5 µM | TGI (SF-268 CNS): 57.6 µM | GI50 (RPMI-8226 leukemia): 6.55 µM | TGI (RPMI-8226 leukemia): 43.8 µM | GI50 (SK-OV-3 ovarian): > 100 µM | TGI (SK-OV-3 ovarian): > 100 µM | GI50 (SNB-75 CNS): > 100 µM | TGI (SNB-75 CNS): > 100 µM | GI50 (HL-60(TB) leukemia): 3.54 µM | TGI (HL-60(TB) leukemia): 13.7 µM | GI50 (SR leukemia): 17.1 µM | TGI (SR leukemia): > 100 µM | GI50 (IGROV1 ovarian): 4.14 µM | TGI (IGROV1 ovarian): 17.1 µM | GI50 (MDA-MB-231 breast): 26.8 µM | TGI (MDA-MB-231 breast): > 100 µM | GI50 (NCI/ADR-RES ovarian): > 100 µM | TGI (NCI/ADR-RES ovarian): > 100 µM | GI50 (HCC-2998 colon): 10.2 µM | TGI (HCC-2998 colon): 23.6 µM | GI50 (K-562 leukemia): 6.53 µM | TGI (K-562 leukemia): > 100 µM | GI50 (SK-MEL-28 melanoma): 6.6 µM | TGI (SK-MEL-28 melanoma): 21.5 µM | GI50 (OVCAR-3 ovarian): 2840 nM | TGI (OVCAR-3 ovarian): 10.7 µM | GI50 (UACC-257 melanoma): 15 µM | TGI (UACC-257 melanoma): 36.5 µM | GI50 (CAKI-1 renal): 18.4 µM | TGI (CAKI-1 renal): 76.6 µM | GI50 (KM12 colon): 11.3 µM | TGI (KM12 colon): 31.6 µM | GI50 (SF-295 CNS): > 100 µM | TGI (SF-295 CNS): > 100 µM | GI50 (A498 renal): > 100 µM | TGI (A498 renal): > 100 µM | GI50 (OVCAR-5 ovarian): > 100 µM | TGI (OVCAR-5 ovarian): > 100 µM | GI50 (786-0 renal): > 100 µM | TGI (786-0 renal): > 100 µM | GI50 (A549 NSCLC): > 100 µM | TGI (A549 NSCLC): > 100 µM | GI50 (NCI-H522 lung): 60.6 µM | TGI (NCI-H522 lung): > 100 µM | GI50 (HS 578T breast): 73.1 µM | TGI (HS 578T breast): > 100 µM | GI50 (UO-31 renal): > 100 µM | TGI (UO-31 renal): > 100 µM | GI50 (NCI-H460 lung): 3.78 µM | TGI (NCI-H460 lung): 14.3 µM | GI50 (MOLT-4 leukemia): 10.2 µM | TGI (MOLT-4 leukemia): 90.2 µM | GI50 (ACHN renal): 16.9 µM | TGI (ACHN renal): > 100 µM | GI50 (MCF7 breast): 2180 nM | TGI (MCF7 breast): 5.39 µM | GI50 (MALME-3M melanoma): > 100 µM | TGI (MALME-3M melanoma): > 100 µM | GI50 (PC-3 prostate): 11.3 µM | TGI (PC-3 prostate): 34.1 µM | GI50 (HOP-62 NSCLC): 17.7 µM | TGI (HOP-62 NSCLC): 40.6 µM | GI50 (M14 melanoma): 35.1 µM | TGI (M14 melanoma): > 100 µM
